Oligonucleotides are written 5' to 3', each unit as a sugar letter and its base; * is a phosphorothioate linkage, no mark a phosphodiester; rarer units and linkages stand in square brackets, end groups in braces. Plain capitals give the bases only. e = 2'-O-(2-methoxyethyl) (MOE); [5mC] = 5-methylcytosine
Columns and labels:
IKAP protein = IKAP protein levels in GM04899 fibroblasts (SDS-PAGE, anti-IKAP antibody, band intensity); assay type: cell-based, human
Procedure: Protein samples were obtained by Trizol extraction and separated by SDS-PAGE. The bands were transferred onto a nitrocellulose membrane and probed with an anti-IKAP antibody (abcam #ab56362) (1:1,000 dilution in 5% milk in TBST) for 12 hrs. The membrane was washed 5 times with TBST for 5 min each and then probed with secondary antibody 800 nm LiCor (1:5,000 in 5% milk in TBST) for 1 hr in the dark. The membrane was subsequently washed 5 times with TBST for 5 min each. The bands were then exposed at 800 nm and band intensity was quantified using an Odyssey (LiCor) instrument. The results are presented in Table 4 as percent increase in band intensity compared to the control oligonucleotide-treated bands.

[1] = test system: IKBKAP pre-mRNA (mt19-21 minigene); assay: Exon 20 inclusion in HEK-293 cells harboring the mt19-21 IKBKAP minigene (RT-PCR); assay type: cell-based, human; conditions: Table 2 (microwalk experiment); HEK-293 with mt19-21 minigene, 0.007 nmol oligonucleotide by electroporation, RT-PCR two days later
How it was run: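 HEK-293 cells carrying the mt19-21 IKBKAP minigene were electroporated with 0.007 nmol uniform 2′-MOE phosphate-backbone antisense oligonucleotide (15- or 20-mers, 5-methylcytosines). After two days, RT-PCR with α^32P-dCTP-labeled amplicons, native PAGE and phosphorimaging gave exon 20 inclusion, normalized for G+C content.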

human IKBKAP mRNA = assay: Exon 20 inclusion in adult transgenic mice after intracerebroventricular infusion; assay type: in vivo, mouse; conditions: for Percent inclusion of exon 20 in human IKBKAP mRNA: thoracic spinal cord, day 8
Procedure: To investigate the effect of ISIS 421992 in an animal model, transgenic mice that carry the entire human IKBKAP gene with the major FD mutation, in addition to being homozygous wild type at the mouse Ikbkap locus, were obtained from an NIH core facility.
Adult mice were treated with ISIS 421992 administered by intracerebroventricular infusion at the rate of 50 μg/day, 100 μg/day, or 200 μg/day. The protocol has been previously described by Hua et al. (Genes Dev. 2010. 24: 1634-1644). Adult mice 3-4 months old and weighing 20-30 g, were anesthetized and placed on a digital stereotaxic instrument (David Kopf Instruments). A small burr hole at the surgical site 1.8 mm lateral to the sagittal suture and 0.3 mm posterior to the bregma suture was drilled through the skull above the right lateral ventricle. A cannula with a 2.2 mm stylet was positioned in the hole. The cannula was connected to an Alzet micro-osmotic pump (model 1007D, Durect Corporation) with a vinyl catheter. The pump, prefilled with the oligonucleotide solution or PBS only was implanted subcutaneously on the back and continuously infused the solution through the cannula into the lateral ventricle at a rate of 0.5 μL per hour. After a week of ICV infusion, the mice were euthanized on day 8 and RNA from the thoracic spinal cord of the transgenic mice was extracted using Trizol and following the manufacturer's protocol. Multiple lanes for each condition represent independent experiments.

Question: For “ISIS 421992: uniform 2′-MOE 20-mer, phosphate backbone; GTCGCAAACAGTACAATGGC, SEQ ID NO 61, intron 20 (eGeTe[5mC]eGe[5mC]eAeAeAe[5mC]eAeGeTeAe[5mC]eAeAeTeGeGe[5mC])”, which “Percent increase in protein band intensity (IKAP)” value (IKAP protein; GM04899, 2 nM as printed in Table 4, 3 days after transfection, compared to control oligonucleotide-treated bands) is on record?
Answer: The value was 76%.

Question: What about the “IKAP protein levels, in words” value (IKAP protein; GM04899, 5 nM, assayed 3 days after transfection) of the same substance?
Answer: Its value is “significant increase in IKAP protein levels”.

Question: What about the “% inclusion (exon 20)” value [1] of the same substance?
Answer: The value was 96%.

Question: What about the “Percent inclusion of exon 20 in human IKBKAP mRNA” value (from here on “Percent inclusion”) (human IKBKAP mRNA; ICV infusion 50 μg/day for a week) of the same substance?
Answer: The value was 40%.

Question: And the “Percent inclusion” value (human IKBKAP mRNA; ICV infusion 100 μg/day for a week)?
Answer: Its value is 46%.

Question: And the “Percent inclusion” value (human IKBKAP mRNA; ICV infusion 200 μg/day for a week)?
Answer: The value was 60%.

Question: And the “inclusion of exon 20 in human IKBKAP mRNA, in words” value (human IKBKAP mRNA; ICV infusion 50-200 μg/day)?
Answer: Its value is “dose-dependent increase in the inclusion of exon 20”.

— patent US11066668B2, “Compositions and methods for modulation of IKBKAP splicing” (Ionis Pharmaceuticals, Inc., priority 2012, dated 2021)
